This passage reports IC50 results from patent US20260083708A1, “IL-17 MODULATORS AND USES THEREOF” (NNOCARE PHARMA INC., priority 2024, published 2026).

Assay [1] has as its target T1, IL-17AA and IL-17RA (Homo sapiens, UniProt Q16552).
T1 construct: purchased Sino Biological 12047-H07B (IL-17AA); 10895-H02H (IL-17RA)
T1 sequence (Q16552 24-155): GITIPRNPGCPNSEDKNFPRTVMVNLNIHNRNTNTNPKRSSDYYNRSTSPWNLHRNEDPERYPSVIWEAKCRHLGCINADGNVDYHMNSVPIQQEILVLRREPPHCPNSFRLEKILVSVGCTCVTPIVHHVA
Kind of assay: Competitive inhibition of human IL-17AA and IL-17RA binding (HTRF). The settings on record: recombinant IL-17AA (His-tag) and IL-17RA (hFc-tag); read-out: IC50 for Inhibiting IL-AA/IL-RA Binding. The procedure: Example 42. Competitive Inhibition of Human IL-17AA and IL-17RA Binding
Recombinant IL-17AA (His-tag, Catalog Number 12047-H07B) and IL-17RA (hFc-tag, Catalog Number 10895-H02H) were purchased from Sino Biological. In the experiment, 10 μL of IL-17AA (1 nM) or IL-17RA (1 nM) was added to 10 μL of anti-6His-Tb (0.4 nM, Revvity, Catalog Number 61HISTLF) or anti-human IgG-d2 (1 μg/mL, anti-human IgG-d2, Revvity, Catalog Number 61HFCDAF), respectively and incubated at room temperature for 1 hour. Compounds were serially diluted starting from 10 μM. 5 μL of each compound solution was incubated with 5 μL of a mixture of IL-17AA and anti-6His-Tb at room temperature for 2 hours. After pre-incubation, to which was added 10 μL of a mixture of IL-17RA and anti-human IgG-d2, and incubation was continued for additional 20 minutes. Subsequently, a microplate reader (Envision, PerkinElmer) was used to detect fluorescence intensity at 615 nm and 665 nm, and the ratio of intensity thereof indicates the degree of IL-17AA and IL-17RA interaction. The ratio of intensity in the absence of tested compound was the highest value of binding between IL-17AA and IL-17RA, and the ratio of intensity in the absence of IL-17AA was the lowest value.
(§1) Therefore, the percentage of inhibition of tested compound was calculated as
Experimental results were analyzed using XLfit (IDBS) for 4-parameter nonlinear fitting analysis, to provide the IC50 value for each tested compound (Table 1).
A general note: Time-resolved FRET reads energy transfer from a long-lived donor to a nearby acceptor.

Assay [2] deals with IL-17AA-induced IL-17 signaling pathway. Put plainly: Inhibition of IL-17AA-induced IL-17 signaling pathway in HEK-Blue IL-17 reporter cells (SEAP). It counts as cell-based. To be noted: Homo sapiens; HEK-Blue IL-17 cells, IL-17AA 2.5 ng/mL, 20 hours; read-out: IC50 for Inhibiting IL-AA Signaling.
Text: Example 43. Inhibition of IL-17AA-Induced IL-17 Signaling Pathway
(§2) Interleukin-17 (IL-17) reporter cell line (HEK-Blue IL-17, InvivoGen, Catalog Number hkb-i117) is created by genetically engineering human IL-17RA/IL-17RC heterodimeric receptor and downstream adapter protein ACT1 into human embryonic kidney 293 cells (HEK293). These cells also express secreted embryonic alkaline phosphatase (SEAP) reporter gene induced by NF-κB and AP-1. Therefore, IL-17AA can activate NF-κB and AP-1 signaling pathways inside the cells by binding to IL-17RA/RC on cell membrane, leading to expression of SEAP protein. After a colorimetric reaction between SEAP protein and Quanti-Blue solution, the absorbance at 620 nm is measured using a microplate reader (BioTek H1M, Agilent, Catalog Number SH1M-SN) to determine IL-17AA-activated signaling pathway.
(§3) In the experiment, HEK-Blue IL-17 cells were cultured at 37° C. under 5% CO2 conditions using the recommended medium from InvivoGen's instruction. Compounds were serially diluted starting from 10 μM. 4 μL of each compound solution was added to 32 μL of cells (10,000 cells) at 37° C. for 1 hour. After pre-incubation, 4 μL of IL-17AA with a final concentration of 2.5 ng/mL (Sino Biological, Catalog Number 12047-HNAS) was added to the cells, and incubation was continued for additional 20 hours. After incubation, 5 μL of cell culture supernatant was added to 45 μL of Quanti-Blue for the colorimetric reaction. The group without tested compound had the highest absorbance at 620 nm, and the group without IL-17AA had the lowest absorbance at 620 nm.
as §1
(§4) Experimental results were analyzed using XLfit (IDBS) for 4-parameter nonlinear fitting analysis to provide the IC50 value for each tested compound (Table 1).

The test system of assay [3] is IL-17AF-induced IL-17 signaling pathway. Kind of assay: Inhibition of IL-17AF-induced IL-17 signaling pathway. It counts as cell-based. The settings on record: Homo sapiens; IL-17AF used instead of IL-17AA; read-out: IC50 for Inhibiting IL-AF Signaling.
Text: as §2, §3, §1, §4
Example 44. Inhibition of IL-17AF-Induced IL-17 Signaling Pathway
The same experimental procedure to Example […] was followed where IL-17AF was used instead of IL-17AA.

As to `CCn1nccc1C(=O)N[C@H](C(=O)Nc1ccc([C@H](C)[C@@H](NC(=O)COC)c2nncn2CC2CCOCC2)cc1F)C(C1CC1)C1CC1` [Compound 9, N-((S)-1,1-dicyclopropyl-3-((2-fluoro-4-((1R,2S)-1-(2-methoxyacetamido)-1-(4-((tetrahydro-2H-pyran-4-yl)methyl)-4H-1,2,4-triazol-3-yl)propan-2-yl)phenyl)amino)-3-oxopropan-2-yl)-1-ethyl-1H-pyrazole-5-carboxamide], the IC50 was 16 nM in assay [1], 31 nM in assay [2] and 133 nM in assay [3].

`COCC(=O)N[C@@H](c1nncn1CC1CC1)[C@@H](C)c1ccc(NC(=O)[C@@H](NC(=O)COCC2(C(F)F)COC2)C(C2CC2)C2CC2)c(F)c1` [Compound 10, (S)-3,3-dicyclopropyl-N-(4-((1R,2S)-1-(4-(cyclopropylmethyl)-4H-1,2,4-triazol-3-yl)-1-(2-methoxyacetamido)propan-2-yl)-2-fluorophenyl)-2-(2-((3-(difluoromethyl)oxetan-3-yl)methoxy)acetamido)propanamide]: the IC50 in assay [1] came out at 109 nM; in assay [2], 277 nM; in assay [3] it was 1040 nM.

Turning to `COCC(=O)N[C@@H](c1nncn1CC1CC1)[C@@H](C)c1ccc(NC(=O)[C@@H](NC(=O)C2(F)CC2)C(C2CC2)C2CC2)c(F)c1` [Compound 11, N-((S)-1,1-dicyclopropyl-3-((4-((1R,2S)-1-(4-(cyclopropylmethyl)-4H-1,2,4-triazol-3-yl)-1-(2-methoxyacetamido)propan-2-yl)-2-fluorophenyl)amino)-3-oxopropan-2-yl)-1-fluorocyclopropane-1-carboxamide], the IC50 worked out at 13 nM in assay [1], 44 nM in assay [2] and 92 nM in assay [3].

For the compound `CCn1nccc1C(=O)N[C@H](C(=O)Nc1ccc([C@H](C)[C@@H](NC(=O)COC)c2nncn2C2CC2)cc1F)C(C1CC1)C1CC1` [Compound 12, N-((S)-1,1-dicyclopropyl-3-((4-((1R,2S)-1-(4-cyclopropyl-4H-1,2,4-triazol-3-yl)-1-(2-methoxyacetamido)propan-2-yl)-2-fluorophenyl)amino)-3-oxopropan-2-yl)-1-ethyl-1H-pyrazole-5-carboxamide], the IC50 worked out at 49 nM in assay [1], 91 nM in assay [2] and 320 nM in assay [3].

With `COCC(=O)N[C@@H](c1nncn1CC1CC1)[C@@H](C)c1ccc(NC(=O)[C@@H](NC(=O)COc2cc(C(F)F)ccn2)C(C2CC2)C2CC2)c(F)c1` [Compound 13, (S)-3,3-dicyclopropyl-N-(4-((1R,2S)-1-(4-(cyclopropylmethyl)-4H-1,2,4-triazol-3-yl)-1-(2-methoxyacetamido)propan-2-yl)-2-fluorophenyl)-2-(2-((4-(difluoromethyl)pyridin-2-yl)oxy)acetamido)propanamide], the results for the IC50 in assay [1], in assay [2] and in assay [3] were 40 nM, 67 nM and 216 nM, respectively.

Turning to `CCc1nonc1C(=O)N[C@H](C(=O)Nc1ccc([C@H](C)[C@@H](NC(=O)COC)c2nncn2CC2CC2)cc1F)C(C1CC1)C1CC1` [Compound 14, N-((S)-1,1-dicyclopropyl-3-((4-((1R,2S)-1-(4-(cyclopropylmethyl)-4H-1,2,4-triazol-3-yl)-1-(2-methoxyacetamido)propan-2-yl)-2-fluorophenyl)amino)-3-oxopropan-2-yl)-4-ethyl-1,2,5-oxadiazole-3-carboxamide], the IC50 in assay [1] is 2.9 nM; in assay [2], 2.3 nM; in assay [3], 9 nM.

Take `COCC(=O)N[C@@H](c1nncn1CC1CC1)[C@@H](C)c1ccc(NC(=O)[C@@H](NC(=O)COCC2CC2)C(C2CC2)C2CC2)c(F)c1` [Compound 15, (S)-3,3-dicyclopropyl-2-(2-(cyclopropylmethoxy)acetamido)-N-(4-((1R,2S)-1-(4-(cyclopropylmethyl)-4H-1,2,4-triazol-3-yl)-1-(2-methoxyacetamido)propan-2-yl)-2-fluorophenyl)propanamide]: the IC50 was found to be 172 nM in assay [1], 1120 nM in assay [2] and 2130 nM in assay [3].

In the case of `CCn1nccc1C(=O)N[C@H](C(=O)Nc1ccc([C@H](C)[C@@H](NC(=O)[C@H](C)OC)c2nncn2CC2CC2)cc1F)C(C1CC1)C1CC1` [Compound 16, N-((S)-1,1-dicyclopropyl-3-((4-((1R,2S)-1-(4-(cyclopropylmethyl)-4H-1,2,4-triazol-3-yl)-1-((S)-2-methoxypropanamido)propan-2-yl)-2-fluorophenyl)amino)-3-oxopropan-2-yl)-1-ethyl-1H-pyrazole-5-carboxamide], the IC50 in assay [1] worked out at 6.3 nM; in assay [2], 6.3 nM; in assay [3], 13 nM.

Regarding `CCn1nccc1C(=O)N[C@H](C(=O)Nc1ccc([C@H](C)[C@@H](NC(=O)COC)c2nnc(C)s2)cc1F)C(C1CC1)C1CC1` [Compound 17, N-((S)-1,1-dicyclopropyl-3-((2-fluoro-4-((1R,2S)-1-(2-methoxyacetamido)-1-(5-methyl-1,3,4-thiadiazol-2-yl)propan-2-yl)phenyl)amino)-3-oxopropan-2-yl)-1-ethyl-1H-pyrazole-5-carboxamide], the IC50 was determined as 442 nM in assay [1], 85 nM in assay [2] and 251 nM in assay [3].

On to `CCn1nccc1C(=O)N[C@H](C(=O)Nc1ccc([C@H](C)[C@@H](NC(=O)COC)c2nnc(C)n2CC2CC2)cc1F)C(C1CC1)C1CC1` [Compound 18, N-((S)-1,1-dicyclopropyl-3-((4-((1R,2S)-1-(4-(cyclopropylmethyl)-5-methyl-4H-1,2,4-triazol-3-yl)-1-(2-methoxyacetamido)propan-2-yl)-2-fluorophenyl)amino)-3-oxopropan-2-yl)-1-ethyl-1H-pyrazole-5-carboxamide], for which the figures for the IC50 in assay [1], in assay [2] and in assay [3] were 17 nM, 14 nM and 51 nM, respectively.

As for `CCn1nccc1C(=O)N[C@H](C(=O)Nc1ccc([C@H](C)[C@@H](NC(=O)COC)c2ncnn2CC2CC2)cc1F)C(C1CC1)C1CC1` [Compound 19, N-((S)-1,1-dicyclopropyl-3-((4-((1R,2S)-1-(1-(cyclopropylmethyl)-1H-1,2,4-triazol-5-yl)-1-(2-methoxyacetamido)propan-2-yl)-2-fluorophenyl)amino)-3-oxopropan-2-yl)-1-ethyl-1H-pyrazole-5-carboxamide], the IC50 in assay [1] is 4.5 nM; in assay [2], 2.6 nM; in assay [3] it was 4 nM.

Take `CCn1nccc1C(=O)N[C@H](C(=O)Nc1ccc([C@H](C)[C@@H](NC(=O)COC)c2ncn(CC3CC3)n2)cc1F)C(C1CC1)C1CC1` [Compound 20, N-((S)-1,1-dicyclopropyl-3-((4-((1R,2S)-1-(1-(cyclopropylmethyl)-1H-1,2,4-triazol-3-yl)-1-(2-methoxyacetamido)propan-2-yl)-2-fluorophenyl)amino)-3-oxopropan-2-yl)-1-ethyl-1H-pyrazole-5-carboxamide]: the IC50 in assay [1] came to 20 nM; in assay [2] it was 14 nM; in assay [3], 50 nM.
